For 6 compounds, speed of sound and mass density results are on record in the NIST ThermoML archive (doi:10.1021/acs.jced.6b00460).

For this data set the following is noted: 101.33 kPa, Liquid; for speed of sound: Sing-around technique in a fixed-path interferometer; for mass density: Vibrating tube method.

Numbers after ± are expanded uncertainties.

Regarding `CCCCCC[n+]1ccc(C)cc1.[Br-]` [1-hexyl-4-methylpyridinium bromide], under “308.15 K”, the speed of sound is listed as 1589.8 ± 2.7 m/s and the mass density is reported as 1214.46 ± 2.3 kg/m3. Further, where the note is “318.15 K”, the speed of sound was 1558.7 ± 2.7 m/s and the mass density is given as 1207.88 ± 2.3 kg/m3.

Take `CCCCCC[n+]1ccccc1.[Br-]` [1-hexylpyridinium bromide]: the speed of sound runs as follows: (308.15 K) 1592.5 ± 2.7 m/s; (318.15 K) 1557.2 ± 2.7 m/s. The mass density by setting is: (308.15 K) 1235.72 ± 2.4 kg/m3; (318.15 K) 1229.23 ± 2.3 kg/m3.

As to `CCCCCC[n+]1ccccc1.[Cl-]` [1-hexylpyridinium chloride], the speed of sound worked out at 1570.7 ± 2.7 m/s (308.15 K) and 1549.2 ± 2.7 m/s (318.15 K). In addition, the mass density was found to be 1146.65 ± 2.3 kg/m3 (308.15 K) and 1142.77 ± 2.3 kg/m3 (318.15 K).

In the case of `CCCCCCCC[n+]1ccccc1.[Br-]` [1-octylpyridinium bromide], where the note is “308.15 K”, the speed of sound is on record as 1507.1 ± 2.6 m/s and the mass density is 1168.14 ± 2.3 kg/m3. For the setting “318.15 K”, the speed of sound turned out to be 1478.3 ± 2.6 m/s and the mass density is given as 1161.81 ± 2.3 kg/m3.

Turning to `CCCCCCCC[n+]1ccc(C)cc1.[Cl-]` [4-methyl-1-octylpyridinium chloride], under “308.15 K”, the speed of sound is 1445.5 ± 2.6 m/s and the mass density is reported as 1107.79 ± 2.2 kg/m3. Also, under “318.15 K”, the speed of sound is on record as 1411.7 ± 2.6 m/s and the mass density is given as 1102.01 ± 2.2 kg/m3.

Consider `CCCCCCCC[n+]1ccccc1.[Cl-]` [N-octylpyridinium chloride], for which, where the note is “308.15 K”, the speed of sound is reported as 1482.6 ± 2.6 m/s and the mass density turned out to be 1128.78 ± 2.2 kg/m3. Moreover, where the note is “318.15 K”, the speed of sound is on record as 1448.6 ± 2.6 m/s and the mass density is listed as 1123.06 ± 2.2 kg/m3.

For orientation: speed of sound means the propagation velocity of pressure waves in the medium. Usually mass density stands for mass per unit of volume.
